Consider 16 compounds from PubChem BioAssay (NCI).

Holding throughout (assay): NCI anticancer screen, dose series, 48 h
Assay [1] deals with KM20L2 colon.
Assay [2] deals with SNB-19 CNS.
The test system of assay [3] is DLD-1 colon.
The subject of assay [4] is SNB-78 CNS.
In assay [5] the test system is SK-OV-3 ovarian.
In assay [6] the test system is RPMI-8226 leukemia.
Assay [7] concerns KM12 colon.
Assay [8] deals with HS 578T breast.
For assay [9], the system named is T-47D breast.
In assay [10] the test system is MDA-MB-435.

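Each compound was tested at five concentrations against cells in 96-well plates for 48 hours. GI50: concentration for 50% inhibition of growth. TGI marks complete inhibition of growth.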

For `O=C1C(=O)N(c2ccc(Cl)c(Cl)c2)C(=O)C(=O)C1c1nc2ccccc2s1`, the TGI in assay [1], in [2], in [3], in assay [4], in assay [5] and in [6] was more than 100 µM throughout.

`CSCC1CC(c2ccc(Cl)cc2)=NO1` (configuration not stated): the TGI in assay [7], in assay [1], in assay [3], in [4], in assay [5] and in assay [6] was more than 100 µM each time.

For the compound `O=c1cc(-c2ccccc2)[nH]c2cc(O)ccc12`, the TGI is 50.7 µM in assay [7]; 40.4 µM in assay [1]; more than 100 µM in assay [2]; 35.7 µM in assay [3]; more than 100 µM in assay [4]; 90.7 µM in [5]. The TGI in [6] came out at 37.6 µM.

Regarding `COc1ccc(N=c2ssc3c(=S)ssc23)cc1`, the TGI in assay [7] is more than 100 µM; in [3], 54.5 µM; in assay [4], 99.4 µM; in [5], more than 100 µM; in [6] it was 38.3 µM.

With `COc1ccc(C2=C(Cl)c3cc(OC)c(OC)cc3C2Cl)cc1OC` (configuration not stated), the TGI in [1] amounted to 29.5 µM; in [2], 32.1 µM; in assay [3] it was 34.9 µM; in assay [4], 75.5 µM; in assay [5], 53.9 µM; in assay [6], 27.7 µM.

Turning to `CCOC(=O)C(=O)Nc1c(CC)cccc1C(C)C`, the TGI in assay [7], in [1], in [2], in [3], in assay [4] and in assay [5] was more than 100 µM each time. Also, the TGI in [6] was more than 100 µM.

Take `Nn1c(-c2ccccc2Cl)nc2ccccc2c1=O`: the TGI in assay [7], in [1], in assay [2], in assay [3], in assay [4] and in assay [5] was more than 100 µM throughout. For the same compound, the TGI in assay [6] was more than 100 µM.

For the compound `CS(=O)(=O)Oc1cccc(/C=N/N=C(\N)NO)c1`, the TGI in assay [7] was more than 100 µM; in assay [2], more than 100 µM; in assay [3], more than 100 µM; in assay [4] it was more than 100 µM; in assay [5], 70.8 µM.

Regarding `CCOC(=O)C1=C(NC)OC/C1=N\NC(=O)c1ccccc1O`, the TGI in assay [7], in [1], in [2], in assay [3], in assay [4] and in assay [5] was more than 100 µM each time. For the same compound, the TGI in assay [6] was more than 100 µM.

On to `N#CC(C(=O)CCC(=O)Nc1cccc(Cl)c1)c1ccccc1` (configuration not stated), for which the TGI in assay [7], in [1], in assay [2], in [3], in assay [4] and in assay [5] was more than 100 µM each time. For the same compound, in assay [6], the TGI is more than 100 µM.

For the compound `CCC1CN2CCc3cc(OC)c(OC)cc3C2CC1CC1c2cc(OC)c(OC)cc2CCN1C(=O)C1CCCN1C(=O)OCc1ccccc1` (configuration not stated), the TGI in assay [7] was 30.1 µM; in assay [1] it was 31.4 µM; in [2] it was 73.5 µM; in assay [3], 31 µM; in [4], 31.2 µM; in assay [6] it was 36.5 µM.

Consider `COC1CC(OS(=O)(=O)c2ccc(C)cc2)C(OC(=O)c2ccccc2)C(C)O1` (configuration not stated), for which the GI50 in assay [7], in assay [1], in [2], in assay [3], in assay [4] and in assay [5] was more than 100 µM each time. The TGI in [7], in assay [1], in [2], in assay [3], in assay [4] and in [5] was more than 100 µM each time. The compound further gave a TGI in assay [6] of more than 100 µM.

For the compound `N#C/C(=C\c1c(-c2ccccc2)[nH]c2ccccc12)S(=O)(=O)c1ccccc1`, the GI50 in assay [7] is 0.625 µM; in assay [8], 8.76 µM; in assay [2] it was 7.08 µM; in assay [9], 3.82 µM; in [5] it was 6.39 µM; in assay [6] it was 0.557 µM. Besides, in assay [10], the GI50 was 0.287 µM. For the same compound, the TGI in assay [7] was 13.9 µM; in assay [8] it was more than 26.8 µM; in assay [2], more than 88.2 µM; in assay [9] it was 33.8 µM; in [5], more than 71.5 µM; in assay [6], 6.88 µM. Further, the TGI in assay [10] came to 3.77 µM.

As for `COc1cc2c(cc1OC(=O)CC(C)O)C1C(OC2=O)C(OC(C)=O)C=C2CCN(C)[C@H]21` (some centres not stated), the TGI was more than 100 µM in assay [7]; more than 100 µM in assay [1]; 57.5 µM in assay [2]; more than 100 µM in [3]; 68.8 µM in [4]; 57.2 µM in assay [5].

In the case of `c1ccc2c(C3NCCc4[nH]cnc43)cccc2c1` (configuration not stated), the TGI in assay [7], in assay [1], in assay [3], in assay [4], in assay [5] and in assay [6] was more than 100 µM throughout.

On to `N=C(N)c1ccc(N2CCCN(c3ccc(C(=N)N)cc3)CC2)cc1`, for which the GI50 in assay [7] was 62.1 µM; in [8], 32.4 µM; in assay [2], 48.7 µM; in assay [9], 22.6 µM; in [5], more than 100 µM; in assay [6], more than 100 µM. Also, in [10], the GI50 was more than 100 µM. For the same compound, the TGI is more than 100 µM in assay [7]; 96.9 µM in [8]; more than 100 µM in assay [2]; 81 µM in assay [9]; more than 100 µM in assay [5]; more than 100 µM in assay [6]. In addition, the TGI in assay [10] was more than 100 µM.
